Test results from PubChem BioAssay (NCI).
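Tested at 5 concentrations; 48 h exposure; 96-well plates; endpoints linearly interpolated, else capped at highest concentration. At the TGI there is no net growth.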

How the values were obtained:
Assay in all cases: inhibition of tumour cell growth, NCI panel, 48 h
KM12 colon = tested on: KM12 colon
SR leukemia = tested on: SR leukemia
PC-3 prostate = tested on: PC-3 prostate
LOX IMVI melanoma = tested on: LOX IMVI melanoma
DU-145 prostate = tested on: DU-145 prostate
UACC-257 melanoma = tested on: UACC-257 melanoma
OVCAR-3 ovarian = tested on: OVCAR-3 ovarian
NCI-H522 lung = tested on: NCI-H522 lung
SK-MEL-28 melanoma = tested on: SK-MEL-28 melanoma
ACHN renal = tested on: ACHN renal
NCI-H226 lung = tested on: NCI-H226 lung
HS 578T breast = tested on: HS 578T breast
UACC-62 melanoma = tested on: UACC-62 melanoma
OVCAR-8 ovarian = tested on: OVCAR-8 ovarian
OVCAR-5 ovarian = tested on: OVCAR-5 ovarian
HCT-116 colon = tested on: HCT-116 colon

SMILES | TGI (KM12 colon) | TGI (SR leukemia) | TGI (PC-3 prostate) | TGI (LOX IMVI melanoma) | TGI (DU-145 prostate) | TGI (UACC-257 melanoma) | TGI (OVCAR-3 ovarian) | TGI (NCI-H522 lung) | TGI (SK-MEL-28 melanoma) | TGI (ACHN renal) | TGI (NCI-H226 lung) | TGI (HS 578T breast) | TGI (UACC-62 melanoma) | TGI (OVCAR-8 ovarian) | TGI (OVCAR-5 ovarian) | TGI (HCT-116 colon)
Cc1c(F)c(N)c2c(=O)cc(-c3ccc(N)c(F)c3)oc2c1F | > 100 µM | 82.8 µM | 45.6 µM | 55.8 µM | > 100 µM | > 100 µM | > 100 µM | 30.3 µM | > 95.2 µM | 50.4 µM | 36 µM | > 95 µM | 31 µM | 58.7 µM | 15.8 µM | 38.2 µM
O=C(Cc1ccc(Cl)cc1)Nc1ccc2oc(-c3ccccc3)nc2c1 | > 100 µM | > 100 µM | > 100 µM | > 100 µM | > 100 µM | > 100 µM | > 100 µM | > 100 µM | > 100 µM | > 100 µM | > 100 µM | > 100 µM | > 100 µM | > 100 µM | > 100 µM | > 100 µM
c1ccc2c(c1)cc1c3[nH]c4ccccc4c3ccn21 | > 10 µM | > 10 µM | > 10 µM | > 10 µM | > 10 µM | > 10 µM | > 10 µM | > 10 µM | > 10 µM | > 10 µM | > 10 µM | > 10 µM | > 10 µM | > 10 µM | > 10 µM | > 10 µM
